Reference: patent US20170280720A1, “ARGININE […] INHIBITORS AND USES THEREOF” (EPIZYME, INC., priority 2014, published 2017)

Key:
Human CARM1 (PRMT4) = target: T1, Human CARM1 (PRMT4) (Homo sapiens, UniProt Q86X55); assay: CARM1 biochemical assay (3H-SAM Flashplate, peptide substrate); conditions: read-out: CARM1_ IC50
T1 construct: Flag-CARM1-His; made in house; host or cells: HEK 293F cells (BacMam baculovirus, pFastBacMam)
T1 sequence (Q86X55 2-585 isoform Q86X55-1): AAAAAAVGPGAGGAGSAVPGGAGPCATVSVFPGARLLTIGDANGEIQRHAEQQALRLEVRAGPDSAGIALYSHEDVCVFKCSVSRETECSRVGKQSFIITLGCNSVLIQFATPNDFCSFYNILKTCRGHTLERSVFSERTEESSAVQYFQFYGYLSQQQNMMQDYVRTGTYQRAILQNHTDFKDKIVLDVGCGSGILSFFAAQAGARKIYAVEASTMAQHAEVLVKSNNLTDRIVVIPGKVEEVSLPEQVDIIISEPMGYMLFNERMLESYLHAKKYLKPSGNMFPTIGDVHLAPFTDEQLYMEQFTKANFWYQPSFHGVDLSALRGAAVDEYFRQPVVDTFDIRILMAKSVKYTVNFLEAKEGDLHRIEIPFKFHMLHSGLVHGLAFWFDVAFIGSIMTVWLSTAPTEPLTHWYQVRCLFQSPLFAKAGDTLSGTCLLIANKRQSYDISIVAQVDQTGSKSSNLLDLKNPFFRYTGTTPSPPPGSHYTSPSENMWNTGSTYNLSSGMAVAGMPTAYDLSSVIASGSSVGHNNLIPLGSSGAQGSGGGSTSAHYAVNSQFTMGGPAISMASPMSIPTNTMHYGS
Source text: S-adenosylmethionine (SAM), S-adenosylhomocysteine (SAH), bicine, Tween20, dimethylsulfoxide (DMSO), bovine skin gelatin (BSG), sodium butyrate and Tris(2-carboxyethyl)phosphine hydrochloride solution (TCEP) were purchased from Sigma-Aldrich at the highest level of purity possible. ^3H-SAM was purchase from American Radiolabeled Chemicals with a specific activity of 80 Ci/mmol. 384-well streptavidin Flashplates were purchased from PerkinElmer.
Peptide representative of human histone H3 residues 16-30 was synthesized with an N-terminal linker-affinity tag motif and a C-terminal amide cap by 21st Century Biochemicals. The peptide was purified by high-performance liquid chromatography (HPLC) to greater than 95% purity and confirmed by liquid chromatography mass spectrometry (LC-MS). The sequence was Biot-Ahx-[…]-amide and contained a monomethylated arginine at position 26 (SEQ ID NO.: 14).
Human CARM1 (PRMT4) (NM_199141.1) transcript clone was amplified from an HEK 293 cDNA library, incorporating a flanking 5′ sequence encoding a FLAG tag ([…]) (SEQ ID NO.: 6) fused directly to Ala 2 of CARM1 and 3′ sequence encoding a hexa His sequence ([…]) (SEQ ID NO.: 15) fused directly to Ser 608. The gene sequence encoding isoform1 containing a deletion of amino acids 539-561 was amplified subsequently and subcloned into pFastBacMam (Viva Biotech).
Recombinant baculovirus were generated according to Bac-to-Bac kit instructions (Life Technologies). […] Infections were carried out at 37° C. for 48 hours, harvested by centrifugation, and stored at −80° C. for purification.
Column was washed with 500 mM NaCl in buffer A and Flag-CARM1-His was eluted with 200 ug/ml FLAG peptide in buffer A. Pooled fractions were dialyzed in 20 mM Tris, 150 mM NaCl, 5% glycerol and 1 mM DTT, pH 7.8. The purity of recovered protein was 94.
General Procedure for CARM1 Enzyme Assays on Peptide Substrates.
The assays were all performed in a buffer consisting of 20 mM Bicine (pH=7.6), 1 mM TCEP, 0.005% BSG, and 0.002% Tween 20, prepared on the day of use. Compounds in 100% DMSO (1 ul) were spotted into a polypropylene 384-well V-bottom plates (Greiner) using a Platemate Plus outfitted with a 384-channel head (Thermo Scientific). DMSO (1 ul) was added to Columns 11, 12, 23, 24, rows A-H for the maximum signal control and 1 ul of SAH, a known product and inhibitor of CARM1, was added to columns 11, 12, 23, 24, rows I-P for the minimum signal control. A cocktail (40 ul) containing the CARM1 enzyme was added by Multidrop Combi (Thermo-Fisher). The compounds were allowed to incubate with CARM1 for 30 min at room temperature, then a cocktail (10 ul) containing ^3H-SAM and peptide was added to initiate the reaction (final volume=51 ul). The final concentrations of the components were as follows: CARM1 was 0.25 nM, ^3H-SAM was 30 nM, peptide was 250 nM, SAH in the minimum signal control wells was 1 mM, and the DMSO concentration was 2%. The assays were stopped by the addition of non-radiolabeled SAM (10 ul) to a final concentration of 300 uM, which dilutes the ^3H-SAM to a level where its incorporation into the peptide substrate is no longer detectable. 50 ul of the reaction in the 384-well polypropylene plate was then transferred to a 384-well Flashplate and the biotinylated peptides were allowed to bind to the streptavidin surface for at least 1 hour before being washed once with 0.1% Tween20 in a Biotek ELx405 plate washer. The plates were then read in a PerkinElmer TopCount plate reader to measure the quantity of ^3H-labeled peptide bound to the Flashplate surface, measured as disintegrations per minute (dpm) or alternatively, referred to as counts per minute (cpm).
Where dpm=disintegrations per minute, cmpd=signal in assay well, and min and max are the respective minimum and maximum signal controls.
Where top and bottom are the normally allowed to float, but may be fixed at 100 or 0 respectively in a 3-parameter fit. […]

[1] = test system: asymmetric di-methyl PABP1 in RKO cells; assay: In Cell Western (ICW) for asymmetric di-methyl PABP1 and DNA content in RKO cells; format: cell-based; conditions: Homo sapiens, RKO, In Cell Western
Source text: RKO adherent cells were purchased from ATCC (American Type Culture Collection), Manassas, Va., USA. DMEM/Glutamax medium, penicillin-streptomycin, heat inactivated fetal bovine serum, 0.05% trypsin and D-PBS were purchased from Life Technologies, Grand Island, N.Y., USA. Odyssey blocking buffer, 800CW goat anti-rabbit IgG (H+L) antibody, and Licor Odyssey infrared scanner were purchased from Licor Biosciences, Lincoln, Nebr., USA. Mono-methyl arginine antibody was purchased from Cell Signaling Technology, Danvers, Mass., USA. Methanol was purchased from VWR, Franklin, Mass., USA. 10% Tween 20 was purchased from KPL, Inc., Gaithersburg, Md., USA. […] was purchased from Biostatus Limited, Leicestershire, UK. RKO adherent cells were maintained in growth medium (DMEM/Glutamax medium supplemented with 10% v/v heat inactivated fetal bovine serum and 100 units/mL penicillin-streptomycin) and cultured at 37° C. under 5% CO2. Cell Treatment, in Cell Western (ICW) for Detection of Asymmetric Di-Methyl PABP1 and DNA Content. RKO cells were seeded in assay medium at a concentration of 30,000 cells per mL to a poly-D-lysine coated 384 well culture plate (BD Biosciences 356697) with 50 μL per well. Compound (100 nL) from a 96-well source plate was added directly to 384 well cell plate. Plates were incubated at 37° C., 5% CO2 for 48 hours. After two days of incubation, plates were brought to room temperature outside of the incubator for ten minutes and blotted on paper towels to remove cell media. Cells were fixed for 20 minutes at room temperature by adding 50 μl of 8% PFA followed by aspiration of supernatant with the Biotek EL406 plate washer. Cells were then permeabilized by addition of 50 μL of ice cold 100% methanol directly to each well and incubated for 30 min at room temperature. After 30 min, plates were transferred to a Biotek EL406 plate washer and washed 2 times with 100 μL per well of wash buffer (1×PBS). Next 60 μL per well of Odyssey blocking buffer (Odyssey Buffer with 0.1% Tween 20 (v/v)) were added to each plate and incubated 1 hour at room temperature. Blocking buffer was removed and 20 μL per well of primary antibody was added (asymmetric-methyl PABP1) diluted 1:400 in Odyssey buffer with 0.1% Tween 20 (v/v)) and plates were incubated overnight (16 hours) at 4° C. Plates were washed 5 times with 100 μL per well of wash buffer. Next 20 μL per well of secondary antibody was added (1:800 800CW goat anti-rabbit IgG (H+L) antibody, 1:2000 DRAQS in Odyssey buffer with 0.1% Tween 20 (v/v)) and incubated for 1 hour at room temperature. The plates were washed 5 times with 100 μL per well wash buffer then 2 times with 100 μL per well of water. Plates were allowed to dry at room temperature then imaged on the Licor Odyssey machine which measures integrated intensity at 700 nm and 800 nm wavelengths. Both 700 and 800 channels were scanned. Calculations: First, the ratio for each well was determined by: Each plate included fourteen control wells of DMSO only treatment (minimum inhibition) as well as fourteen control wells for maximum inhibition treated with 20 μM of a reference compound. The average of the ratio values for each control type was calculated and used to determine the percent activation for each test well in the plate. Reference compound was serially diluted three-fold in DMSO for a total of nine test concentrations, beginning at 20 μM. Percent inhibition was determined and IC50 curves were generated using triplicate wells per concentration of compound.

SMILES | IC50 (Human CARM1 (PRMT4)) [µM] | IC50 [1] [µM]
CC(C)n1ncc2c(C(=O)NCc3ccncc3)cc(-c3cccc(CN(C)CCN)c3)nc21 [Compound 172] | 0.00567 | 3.14
CCOC(=O)Nc1cc(-c2cccc(CN(C)CCN)c2)nc2c1cnn2C(C)C [Compound 173] | 0.00593 | 3.31
CN(CCN)Cc1cccc(-c2nc(NC3CCOCC3)c3cnn(C4CC4)c3n2)c1 [Compound 174] | 0.00611 | 5.04
CC(C)n1ncc2c(NC(=O)NC3CCOCC3)cc(-c3cccc(CN(C)CCN)c3)nc21 [Compound 175] | 0.00694 | 11.5
CNCCN(C)Cc1cccc(-c2cc(C(=O)NCc3cnc4ccccn34)c3cnn(C(C)C)c3n2)c1 [Compound 176] | 0.00729 | 0.865
CNCCN(C)Cc1cccc(-c2nc(NC3CCOCC3)c3cnn(C4CC4)c3n2)c1 [Compound 179] | 0.00888 | 4.87
CNCCN(C)Cc1cccc(-c2cc(C(=O)NCc3cn4cccc(C)c4n3)c3cnn(C(C)C)c3n2)c1 [Compound 181] | 0.00963 | 0.733
Cc1c(CNC(=O)c2cc(-c3cccc(CN(C)CCN)c3)nc3c2cnn3C(C)C)cnn1C [Compound 183] | 0.0116 | 1.97
CC(C)n1ncc2c(C(=O)NCc3cncn3C)cc(-c3cccc(CN(C)CCN)c3)nc21 [Compound 185] | 0.0117 | 10.8
CNCCN(C)Cc1cccc(-c2cc(OC3CCOCC3)c3cnn(C(C)C)c3n2)c1 [Compound 187] | 0.012 | 6.09
CNCCN(C)Cc1cccc(-c2cc(C3=CCOCC3)c3cnn(C(C)C)c3n2)c1 [Compound 188] | 0.0123 | 8.31
CC(C)n1ncc2c(C(=O)NCc3nccs3)cc(-c3cccc(CN(C)CCN)c3)nc21 [Compound 189] | 0.0124 | 1.89
CNCCN(C)Cc1cccc(-c2cc(NC(=O)OC)c3cnn(C(C)C)c3n2)c1 [Compound 190] | 0.0125 | 2.46
CC(C)n1ncc2c(C(=O)NCc3cnc4ccccn34)cc(-c3cccc(CN(C)CCN)c3)nc21 [Compound 194] | 0.0136 | 1.2
CC(C)n1ncc2c(C(=O)NCc3cccnc3)cc(-c3cccc(CN(C)CCN)c3)nc21 [Compound 195] | 0.0139 | 1.66
CC(C)n1ncc2c(C(=O)NCc3cccc4ccnn34)cc(-c3cccc(CN(C)CCN)c3)nc21 [Compound 197] | 0.015 | 1.66
CC(C)n1ncc2c(-c3ccco3)cc(-c3cccc(CN(C)CCN)c3)nc21 [Compound 198] | 0.0151 | 20
CNCCN(C)Cc1cccc(-c2cc(C(=O)NCc3cccnc3)c3cnn(C(C)C)c3n2)c1 [Compound 199] | 0.0159 | 2.18
CC(C)n1ncc2c(C(=O)N3CCC3)cc(-c3cccc(CN(C)CCN)c3)nc21 [Compound 201] | 0.0182 | 3.05
CC(C)n1ncc2c(C(=O)NC3CCOC3)cc(-c3cccc(CN(C)CCN)c3)nc21 (stereo not drawn) [Compound 202] | 0.0191 | 1.99
CCOC(=O)Nc1cc(-c2cccc(CN(C)CCNC)c2)nc2c1cnn2C(C)C [Compound 205] | 0.0196 | 5.75
CC(C)n1ncc2c(C(=O)NCc3cnc[nH]3)cc(-c3cccc(CN(C)CCN)c3)nc21 [Compound 206] | 0.0197 | 20
CNCCN(C)Cc1cccc(-c2cc(C(=O)NCc3nccs3)c3cnn(C(C)C)c3n2)c1 [Compound 207] | 0.0206 | 1.64
CN(CCN)Cc1cccc(-c2cc(C(=O)NCC3CCOCC3)cc(N(C)CC3CC3)c2)c1 [Compound 208] | 0.0207 | 5.54
CNCCN(C)Cc1cccc(-c2cc(-c3ccco3)c3cnn(C(C)C)c3n2)c1 [Compound 209] | 0.0217 | 20
CC(C)n1ncc2c(C(=O)NC3CC3)cc(-c3cccc(CN(C)CCN)c3)nc21 [Compound 210] | 0.0224 | 2
CCN(Cc1cccnc1)C(=O)c1cc(-c2cccc(CN(C)CCN)c2)nc2c1cnn2C(C)C [Compound 211] | 0.0239 | 3.25
